Columns and labels:
foxtail, giant [1] = assay: Test A postemergence; type: in vivo, Setaria faberii
Method in brief: (§1)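 Growth medium: loam soil blended with sand. Preemergence treatment used a directed soil spray right after planting; postemergence treatment targeted seedlings at one to two leaves (2–10 cm height). Response was judged by eye relative to untreated plants about 10 days later on a 0–100 control scale.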

rice = assay: Test B flood; type: in vivo, Oryza sativa; conditions: 250 g ai/ha, visual rating on 0 to 100 scale (0 no effect, 100 complete control), 13 to 15 days
Method in brief: (§2)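 Two-leaf-stage plants, pots flooded (3 cm above soil) and treated through the water, which stayed at that depth. After 13–15 days in greenhouse conditions, visual assessment versus controls: 0 is no effect, 100 complete control, dash means no result.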

wheat [2] = assay: Test A postemergence; type: in vivo, Triticum aestivum
Method in brief: as §1

morningglory [3] = assay: Test A preemergence; type: in vivo, Ipomoea spp.; conditions: preemergence; for Morningglory plant response rating (0 to 100 scale): 125 g ai/ha, visual injury approx. 10 days after treatment; for Morningglory plant response rating: 500 g ai/ha, visual injury after approx. 10 days, 0 to 100 scale (0 no effect, 100 complete control)
Method in brief: as §1

corn [4] = assay: Test A postemergence; type: in vivo, Zea mays
Method in brief: as §1

crabgrass, large [5] = assay: Test A postemergence; type: in vivo, Digitaria sanguinalis
Method in brief: as §1

pigweed [6] = assay: Test A preemergence; type: in vivo, Amaranthus retroflexus; conditions: preemergence; for Pigweed plant response rating (0 to 100 scale): 125 g ai/ha, visual injury approx. 10 days after treatment; for Pigweed plant response rating: 500 g ai/ha, visual injury after approx. 10 days, 0 to 100 scale (0 no effect, 100 complete control)
Method in brief: as §1

barnyardgrass [7] = assay: Test A postemergence; type: in vivo, Echinochloa crus-galli
Method in brief: as §1

pigweed [8] = assay: Test A postemergence; type: in vivo, Amaranthus retroflexus
Method in brief: as §1

sedge, umbrella = assay: Test B flood; type: in vivo, Cyperus difformis; conditions: 250 g ai/ha, visual rating on 0 to 100 scale (0 no effect, 100 complete control), 13 to 15 days
Method in brief: as §2

barnyardgrass [9] = assay: Test B flood; type: in vivo, Echinochloa crus-galli; conditions: 250 g ai/ha, visual rating on 0 to 100 scale (0 no effect, 100 complete control), 13 to 15 days
Method in brief: as §2

morningglory [10] = assay: Test A postemergence; type: in vivo, Ipomoea spp.
Method in brief: as §1

barnyardgrass [11] = assay: Test A preemergence; type: in vivo, Echinochloa crus-galli; conditions: preemergence
Method in brief: as §1

corn [12] = assay: Test A preemergence; type: in vivo, Zea mays; conditions: preemergence; for Corn plant response rating (0 to 100 scale): 125 g ai/ha, visual injury approx. 10 days after treatment; for Corn plant response rating: 500 g ai/ha, visual injury after approx. 10 days, 0 to 100 scale (0 no effect, 100 complete control)
Method in brief: as §1

velvetleaf [13] = assay: Test A postemergence; type: in vivo, Abutilon theophrasti
Method in brief: as §1

ducksalad = assay: Test B flood; type: in vivo, Heteranthera limosa; conditions: 250 g ai/ha, visual rating on 0 to 100 scale (0 no effect, 100 complete control), 13 to 15 days
Method in brief: as §2

crabgrass, large [14] = assay: Test A preemergence; type: in vivo, Digitaria sanguinalis; conditions: preemergence; for Crabgrass, Large plant response rating (0 to 100 scale): 125 g ai/ha, visual injury approx. 10 days after treatment; for Crabgrass, Large plant response rating: 500 g ai/ha, visual injury after approx. 10 days, 0 to 100 scale (0 no effect, 100 complete control)
Method in brief: as §1

foxtail, giant [15] = assay: Test A preemergence; type: in vivo, Setaria faberii; conditions: preemergence; for Foxtail, Giant plant response rating (0 to 100 scale): 125 g ai/ha, visual injury approx. 10 days after treatment; for Foxtail, Giant plant response rating: 500 g ai/ha, visual injury after approx. 10 days, 0 to 100 scale (0 no effect, 100 complete control)
Method in brief: as §1

velvetleaf [16] = assay: Test A preemergence; type: in vivo, Abutilon theophrasti; conditions: preemergence; for Velvetleaf plant response rating (0 to 100 scale): 125 g ai/ha, visual injury approx. 10 days after treatment; for Velvetleaf plant response rating: 500 g ai/ha, visual injury after approx. 10 days, 0 to 100 scale (0 no effect, 100 complete control)
Method in brief: as §1

wheat [17] = assay: Test A preemergence; type: in vivo, Triticum aestivum; conditions: preemergence; for Wheat plant response rating (0 to 100 scale): 125 g ai/ha, visual injury approx. 10 days after treatment; for Wheat plant response rating: 500 g ai/ha, visual injury after approx. 10 days, 0 to 100 scale (0 no effect, 100 complete control)
Method in brief: as §1

[18] = Postemergence, 500 g ai/ha, 0 to 100 scale (0 no effect, 100 complete control)
[19] = postemergence, 125 g ai/ha, about 10 days, visual rating on 0 to 100 scale (0 no effect, 100 complete control)
[20] = 125 g ai/ha, visual injury, 0 to 100 scale, approx. 10 days
[21] = 500 g ai/ha, visual injury after approx. 10 days, 0 to 100 scale (0 no effect, 100 complete control)

Row | Structure (SMILES) | Foxtail, Giant plant response rating (foxtail, giant [1]; [18]) | Foxtail, Giant plant response rating (foxtail, giant [1]; [19]) | Plant response rating, Rice (rice) | Wheat plant response rating (wheat [2]; [18]) | Morningglory plant response rating (0 to 100 scale) (morningglory [3]) | Morningglory plant response rating (morningglory [3]) | Corn plant response rating (corn [4]; [18]) | Corn plant response rating (corn [4]; [19]) | Crabgrass, Large plant response rating (crabgrass, large [5]; [18]) | Crabgrass, Large plant response rating (crabgrass, large [5]; [19]) | Pigweed plant response rating (0 to 100 scale) (pigweed [6]) | Pigweed plant response rating (pigweed [6]) | Barnyardgrass plant response rating (barnyardgrass [7]; [18]) | Barnyardgrass plant response rating (barnyardgrass [7]; [19]) | Pigweed plant response rating (pigweed [8]; [18]) | Plant response rating, Sedge, Umbrella (sedge, umbrella) | Plant response rating, Barnyardgrass (barnyardgrass [9]) | Morningglory plant response rating (morningglory [10]; [18]) | Barnyardgrass plant response rating (barnyardgrass [11]; [21]) | Corn plant response rating (0 to 100 scale) (corn [12]) | also measured
1 | CCc1cc(-c2ccc(C(F)(F)F)cc2)nn1C(=O)c1ccnc(C(F)(F)F)c1 [Compound 165] | 10 | 10 | 0 | 10 | 0 | 0 | 10 | 10 | 20 | 10 | 10 | 20 | 10 | 10 | 80 | 0 | 0 | 20 | 0 | 0 | Wheat plant response rating (wheat [2]; [19]): 0; Pigweed plant response rating (pigweed [8]; [19]): 30; Morningglory plant response rating (morningglory [10]; [19]): 10; Barnyardgrass plant response rating (barnyardgrass [11]; [20]): 0; Corn plant response rating (corn [12]): 0; Velvetleaf plant response rating (velvetleaf [13]; [18]): 20; Velvetleaf plant response rating (velvetleaf [13]; [19]): 10; Plant response rating, Ducksalad (ducksalad): 0; Crabgrass, Large plant response rating (0 to 100 scale) (crabgrass, large [14]): 0; Crabgrass, Large plant response rating (crabgrass, large [14]): 0; Foxtail, Giant plant response rating (0 to 100 scale) (foxtail, giant [15]): 0; Foxtail, Giant plant response rating (foxtail, giant [15]): 0; Velvetleaf plant response rating (0 to 100 scale) (velvetleaf [16]): 0; Velvetleaf plant response rating (velvetleaf [16]): 0; Wheat plant response rating (0 to 100 scale) (wheat [17]): 0; Wheat plant response rating (wheat [17]): 0
2 | CCCCNC(=O)c1cc(Cl)n(Cc2cccc(C(F)(F)F)c2)n1 [Compound 171] | 20 | 10 | 0 | 0 | 0 | 0 | 20 | 0 | 30 | 10 | 0 | 0 | 20 | 0 | 50 | 0 | 0 | 30 | 0 | 0 | Wheat plant response rating (wheat [2]; [19]): 0; Pigweed plant response rating (pigweed [8]; [19]): 20; Morningglory plant response rating (morningglory [10]; [19]): 0; Barnyardgrass plant response rating (barnyardgrass [11]; [20]): 0; Corn plant response rating (corn [12]): 0; Velvetleaf plant response rating (velvetleaf [13]; [18]): 30; Velvetleaf plant response rating (velvetleaf [13]; [19]): 20; Plant response rating, Ducksalad (ducksalad): 0; Crabgrass, Large plant response rating (0 to 100 scale) (crabgrass, large [14]): 0; Crabgrass, Large plant response rating (crabgrass, large [14]): 0; Foxtail, Giant plant response rating (0 to 100 scale) (foxtail, giant [15]): 0; Foxtail, Giant plant response rating (foxtail, giant [15]): 0; Velvetleaf plant response rating (0 to 100 scale) (velvetleaf [16]): 0; Velvetleaf plant response rating (velvetleaf [16]): 0; Wheat plant response rating (0 to 100 scale) (wheat [17]): 0; Wheat plant response rating (wheat [17]): 0
3 | O=C(NC1CC1)c1cc(Cl)n(Cc2cccc(C(F)(F)F)c2)n1 [Compound 174] | 0 | 0 | 0 | 0 | 0 | 0 | 10 | 0 | 10 | 0 | 20 | 90 | 10 | 0 | 90 | 0 | 0 | 10 | 0 | 0 | Wheat plant response rating (wheat [2]; [19]): 0; Pigweed plant response rating (pigweed [8]; [19]): 20; Morningglory plant response rating (morningglory [10]; [19]): 0; Barnyardgrass plant response rating (barnyardgrass [11]; [20]): 0; Corn plant response rating (corn [12]): 0; Velvetleaf plant response rating (velvetleaf [13]; [18]): 10; Velvetleaf plant response rating (velvetleaf [13]; [19]): 0; Plant response rating, Ducksalad (ducksalad): 0; Crabgrass, Large plant response rating (0 to 100 scale) (crabgrass, large [14]): 10; Crabgrass, Large plant response rating (crabgrass, large [14]): 40; Foxtail, Giant plant response rating (0 to 100 scale) (foxtail, giant [15]): 0; Foxtail, Giant plant response rating (foxtail, giant [15]): 20; Velvetleaf plant response rating (0 to 100 scale) (velvetleaf [16]): 0; Velvetleaf plant response rating (velvetleaf [16]): 0; Wheat plant response rating (0 to 100 scale) (wheat [17]): 0; Wheat plant response rating (wheat [17]): 0
4 | O=C(NCC(F)(F)F)c1cc(I)n(Cc2cccc(C(F)(F)F)c2)n1 [Compound 181] | 10 | 0 | 20 | 0 | 0 | 0 | 20 | 0 | 10 | 10 | 10 | 50 | 10 | 10 | 100 | 40 | 0 | 80 | 10 | 0 | Barnyardgrass plant response rating (0 to 100 scale, 0 is no effect, 100 is complete control) (barnyardgrass [11]; 125 g ai/ha, visual injury approx. 10 days after treatment): 0; Corn plant response rating (corn [12]): 0; Velvetleaf plant response rating (velvetleaf [13]; [18]): 20; Plant response rating, Ducksalad (ducksalad): 0; Crabgrass, Large plant response rating (0 to 100 scale) (crabgrass, large [14]): 10; Crabgrass, Large plant response rating (crabgrass, large [14]): 60; Foxtail, Giant plant response rating (0 to 100 scale) (foxtail, giant [15]): 0; Foxtail, Giant plant response rating (foxtail, giant [15]): 20; Velvetleaf plant response rating (0 to 100 scale) (velvetleaf [16]): 0; Velvetleaf plant response rating (velvetleaf [16]): 0; Wheat plant response rating (0 to 100 scale) (wheat [17]): 0; Wheat plant response rating (wheat [17]): 0
